These results are taken from patent US20240091324A1, “GASTROINTESTINAL HEALTH COMPOSITION” (priority 2019, published 2024).

What all share (type): cell-based, human
The test system of assay [1] is IL-8 release from Caco-2 monolayers. Kind of assay: Release of IL-8 from polarised Caco-2 monolayers stimulated with LPS, TNF-α, IFN-β. The conditions noted are these: for % increase in anti-inflammatory activity compared to equivalent formulation without bromelain (difference of means): plus 80 ug/ml bromelain. As to the method: Inflammatory model of Caco-2 polarised monolayer stimulated with inflammatory mediators LPS, TNF-α, IFN-β: Polarised Caco-2 models were generated as previously described. When cell cultures reached a baseline TER of >1000/cm^2, the monolayers were stimulated by addition of 0.6 ml containing 50 ng/ml IFN-β, 10 μg/ml LPS and 5 ng/ml TNFα to the basolateral compartment. Immediately after the addition of the stimulation cocktail 0.25 ml of GaRP±0-80 μg/ml bromelain was applied to the apical compartment. After the 24 h incubation culture supernatants from the apical side were collected for quantitation of IL-8.
The human colorectal adenocarcinoma cell-line C2BBe1 was grown and maintained in Dulbecco's modified Eagle's medium (DMEM) supplemented with 10% v/v fetal bovine serum (FBS), 4 mM L-glutamine, 100 U/ml penicillin and […] streptomycin. All experiments were conducted on C2BBe1 cells within 12 passages after thawing.
In an experiment to evaluate the anti-inflammatory effect of bromelain or various GaRP formulations, 0.25 ml of test samples was applied to the apical side for 24 h, at the same time 0.6 ml of a cocktail containing 50 ng/ml IFN+10 ug/ml LPS+5 ng/ml TNF was added to the basolateral side in this model. After the 24 h incubation culture supernatants from the apical side were collected and IL-8 quantitated by ELISA.

The next assay has as its system Enterocyte. Kind of assay: Observed therapeutic effective dose determined in the in vitro experiments (Table 4). As to the method: (§1) The observed therapeutic effective dose was determined in the in vitro experiments described herein.
(§2) Table 4 summarises the observed therapeutic effective dose for each GaRP formulation component.

In the next assay the test system is Macrophage. Described as above. As to the method:
as §1, §2

Where [2] appears, read: formulation or component plus 80 ug/ml bromelain, 24 h.
Where [3] appears, read: without bromelain, test sample apical 24 h, IFN+LPS+TNF cocktail basolateral.

With `N=C(N)NCCC[C@H](N)C(=O)O` [L-arginine], the “% inhibition of the release of IL-8 Median ± SEM” value in assay [1] (setting [2]) came out at 73 ± 8%; in assay [1] (setting [3]) it was 6 ± 8%. Besides, the “% increase in anti-inflammatory activity compared to equivalent formulation without bromelain (difference of means)” value in assay [1] is recorded as 67%.
For `NC(=O)CC[C@H](N)C(=O)O` [L-glutamine], in that order: 83 ± 1%, 11 ± 7% and 72%.
The matching figures for `CSCC[C@H](N)C(=O)O` [L-methionine]: 73 ± 10%, 20 ± 5% and 53%.
With `C[C@@H](O)[C@H](N)C(=O)O` [L-threonine], in the assay with Enterocyte, the “observed therapeutic effective dose, Target cell Enterocyte (pg/cell)” value was found to be 15 pg/cell. The “observed therapeutic effective dose, Target cell Macrophage (pg/cell)” value in the assay with Macrophage was determined as 300 pg/cell. In addition, the figures for the “% inhibition of the release of IL-8 Median ± SEM” value in assay [1] (setting [2]) and in assay [1] (setting [3]) were 73 ± 11% and 18 ± 1%, respectively. Moreover, the “% increase in anti-inflammatory activity compared to equivalent formulation without bromelain (difference of means)” value in assay [1] is given as 55%.
